Laboratory results reported in patent US20170165286A1, “COMPOSITIONS AND METHODS FOR TREATING DIABETES AND LIVER DISEASES” (Cempra Pharmaceuticals, Inc., priority 2014, published 2017).

Experiments:
[1] = system: BLM-induced pulmonary fibrosis model mice; assay: Bleomycin-induced lung injury: lung histopathology (Masson's Trichrome, Ashcroft score, HE); type: in vivo
Experimental: (§1) Bleomycin-Induced Lung Injury. Lung inflammation is induced in female mice by a single intratracheal administration of bleomycin. Twenty mice are divided into two groups. From Day −2 to Day 6, one group is administered vehicle and the other is administered test drug, such as solithromycin orally at a dose of 100 mg/kg. It is to be understood herein that 100 mg/kg in mice is generally considered to be equivalent to a 450-500 mg, such as 480 mg, dose in humans. Animals are sacrificed on Day 7.
(§2) Pathogen-free 7 weeks old female C57BL/6J mice are obtained from CLEA Japan (Tokyo, Japan) and allowed to acclimate at least 6 days. On day 0, twenty mice are induced to develop pulmonary fibrosis by a single intratracheal administration of bleomycin sulphate (BLM, Nippon Kayaku, Japan) in 0.9% saline in a volume of 50 μL per animal using a Microsprayer® (Penn-Century, USA). Individual body weight is measured daily during the experiment period. Survival, clinical signs and behavior of mice is monitored daily.
Solithromycin Reduces Inflammation In Mice Caused By Bleomycin-Induced Lung Injury. […]
Histopathological Analyses. […] The degree of pulmonary fibrosis was evaluated using the Ashcroft score (4) for the quantitative histological analysis.

[2] = system: BLM-induced pulmonary fibrosis model mice; assay: Bleomycin-induced lung injury: BALF analysis, body weight; type: in vivo; settings: for BALF Eosinophil / BALF Lymphocytes / BALF Macrophages / BALF Neutrophil / BALF Total cells: oral q.d. day −2 to 6
Experimental: as §1, with “From Day −2 to Day 6, one group is administered vehicle and the other is administered test drug, such as solithromycin orally at a dose of 100 mg/kg.” left out
as §2
Solithromycin Reduces Inflammation In Mice Caused By Bleomycin-Induced Lung Injury. Pulmonary fibrosis is a problem in the management of patients who have received chemotherapy for malignancies particularly with regimens that contain bleomycin (BLM), methotrexate, cyclophosphamide, and many new agents. These patients are susceptible to pulmonary infections as well as to inflammation from pulmonary injury. […] The effects of solithromycin on the ability to prevent lung inflammation and fibrosis is described in a bleomycin induced-lung inflammation and fibrosis model. Group 1 (BLM-Vehicle): Ten BLM-induced pulmonary fibrosis model mice are orally administered vehicle (Carboxymethyl cellulose) at a volume of 10 mL/kg once daily from day −2 (two days before BLM administration) to day 6. […]
BALF samples were collected by flushing the lung via the trachea with sterile PBS three times (0.8 mL each). The first lavage was kept separate from the other two. BALF was centrifuged at 1,000×g for 3 minutes at 4° C. and the supernatant was collected and stored at −80° C. until use. The cell pellet from the first fraction and the remaining fractions of lavage fluid were pooled. Total cell number of BALF was counted with a hemocytometer and the cell differentials were determined by cytospin preparation stained with Diff-Quick (Sysmex, Japan). A differential cell count was performed on up to about 200 cells.
MMP-9 in the BALF was quantified by the Mouse Total MMP-9 Quantikine ELISA Kit (R&D Systems, USA).
Analyses of BALF (bronchoalveolar lavage fluid). The cells in BALF are counted with a hemocytometer, and cell differentials are determined in cytospin preparations stained with Diff-Quik (Sysmex, Japan) MMP-9 in the supernatants from BALF are quantified by an enzyme-linked immunosorbent assay (ELISA; Cat# MMPT90, R&D Systems, USA). Histopathological assays for lung sections are performed according to standard methods. Masson's Trichrome staining and estimation of Ashcroft Score includes HE staining. Gene expression assays using total RNA from the lung are obtained using real-time RT-PCR analyses performed for TNF-α, MCP-1 and MMP-9.

[3] = bleomycin mice, heading says 50 mg/kg q.d.
[4] = bleomycin mice, heading says 50 mg/kg q.d., listed as SOLI

## CC[C@H]1OC(=O)[C@@](C)(F)C(=O)[C@H](C)[C@@H](O[C@@H]2O[C@H](C)C[C@H](N(C)C)[C@H]2O)[C@](C)(OC)C[C@@H](C)C(=O)[C@H](C)[C@H]2N(CCCCn3cc(-c4cccc(N)c4)nn3)C(=O)O[C@]12C [solithromycin]
[1]
  HE staining: alveolar wall thickening, diffuse alveolar destruction, inflammatory cell infiltration vs vehicle: no obvious differences
[1]; vehicle 1.6±0.2
  Ashcroft score: 1.4±0.5
[2]; bleomycin mice BALF (ELISA), heading says 50 mg/kg q.d.
  MMP-9 expression: decreasing trend
[2]; bleomycin mice, any day and day of sacrifice
  Body weight changes compared to vehicle group: no significant differences
[2]; [3]
  BALF Eosinophil: significantly decreased
  BALF Lymphocytes: significantly decreased
  BALF Macrophages: no significant difference
  BALF Neutrophil: significantly decreased
  BALF Total cells: significantly decreased
[2]; [4]
  BALF Eosinophil: 0.3 ± 0.2 × 10^4
  BALF Lymphocytes: 3.9 ± 1.9 × 10^4
  BALF Macrophages: 16.9 ± 9.6 × 10^4
  BALF Neutrophil: 0.7 ± 0.4 × 10^4
  BALF Total cells: 2.2 ± 1.2 × 10^5
